# Source: patent publication US20260140098A1, “METHOD FOR TREATING PLASMA SAMPLE CONTAINING (7aS,2'S)-2-OXO-CLOPIDOGREL AND METHOD FOR DETERMINING THE SAME” (CHENGDU SHIBEIKANG BIOMEDICAL TECHNOLOGY CO., LTD., priority 2021, published 2026)
# Values joined by “and” are separate entries in the source; they are usually repeats but may differ in a detail not shown here. Equal values may be shown once. Read-outs that look alike come from different tables or passages of the source.
# Key:
# [1] = Stability of (7aS,2′S)-2-oxo-clopidogrel in plasma at −80° C., screening of reducing agent type (Example 5); assay type: in vitro ADME; conditions: for recovery at 0 day, 0.1 ng/mL / recovery at 10 day, 0.1 ng/mL / recovery at 30 day, 0.1 ng/mL / recovery at 60 day, 0.1 ng/mL: theoretical 0.1 ng/mL; for recovery at 0 day, 0.1 ng/mL / recovery at 0 day, 12 ng/mL: day 0, read-out: Recovery rate; for recovery at 10 day, 0.1 ng/mL / recovery at 10 day, 12 ng/mL: day 10, read-out: Recovery rate; for recovery at 30 day, 0.1 ng/mL / recovery at 30 day, 12 ng/mL: day 30, read-out: Recovery rate; for recovery at 60 day, 0.1 ng/mL / recovery at 60 day, 12 ng/mL: day 60, read-out: Recovery rate; for recovery at 0 day, 12 ng/mL / recovery at 10 day, 12 ng/mL / recovery at 30 day, 12 ng/mL / recovery at 60 day, 12 ng/mL: theoretical 12.0 ng/mL
# Method: (§1) S2. Plasma sample pre-treatment: taking 100 μl of the plasma, adding 5 μl of an internal standard working solution and 300 μl of acetonitrile respectively; after vortex mixing, centrifuging at 2-8° C. and 10,000 r/min for 10 min, and collecting the supernatant for later use.
# (§2) S3. LC-MS/MS analysis: injecting 10 μl of the supernatant prepared from step S2 for determination, where the liquid chromatography conditions are: • the chromatographic column is Kinetex® 1.7 μm C18 100 A 100×2.1 mm; the column temperature is 40° C.; the mobile phase is acetonitrile-0.2% aqueous formic acid solution with a flow rate of 0.2 ml/min; and a gradient elution is carried out as specified in the table below:
# (§3) ESI ion source, positive ion detection in multiple reaction monitoring mode (MRM); the quantitatively analyzed ions (7aS,2′S)-2-oxo-clopidogrel: m/z 338.100→155.000, IS: m/z 341.100→158.000, a capillary voltage of 4.0 KV, a cone voltage of 25 V, a desolvation gas temperature of 400° C. and a source temperature of 150° C. The optimal collision energy is 20 eV.
# Blank plasma was taken and different antioxidants (DTT, TCEP, ME) were added to prepare plasma containing an antioxidant at a concentration of 100 mg/ml. Subsequently, standard series solution of (7aS,2′S)-2-oxo-clopidogrel was added separately to prepare quality control samples with two concentrations of (7aS,2′S)-2-oxo-clopidogrel (0.1 and 12.0 ng/ml), 3 samples for each concentration. They were placed in a refrigerator at −80° C., and the plasma samples at different placing time points were taken to examine the stability by pre-treating the plasma samples according to the method of S2 of Example 1, followed by LC/MS/MS determination according to the method of S3.
# [2] = Stability of (7aS,2′S)-2-oxo-clopidogrel in plasma containing the reducing agent (Example 8); assay type: in vitro ADME, human; conditions: plasma with reducing agent; for Measured concentration: single replicates
# Method: S1. Whole blood treatment: taking 3 ml of human whole blood anticoagulated with EDTA-K2 after oral administration of (7aS,2′S)-2-oxo-clopidogrel, cooling to 4° C. on ice, then adding thereto 60 μl of tris(2-carboxyethyl) phosphine at 100 mg/ml; shaking well and then centrifuging (2-8° C., 3000 rpm for 10 min), and collecting plasma for later use.
# as §1, §2, §3
# Blank plasma was taken and operated according to S1 of Example 1 to obtain a blank plasma containing the reducing agent. Subsequently, a standard series solution of (7aS,2′S)-2-oxo-clopidogrel was added to prepare quality control samples containing (7aS,2′S)-2-oxo-clopidogrel at concentrations of 0.1 and 12 ng/ml. The plasma samples were examined for stability after ice box short-term placement, stability after room temperature short-term placement, stability after freeze-thaw cycle and stability after long-term cryopreservation.
# The plasma samples at different placing time points were taken to examine the stability by pre-treating the plasma samples according to the method of S2 of Example 1, followed by LC/MS/MS determination according to the method of S3.
# [3] = blank plasma containing DTT 100 mg/ml, DTT 100 mg/ml
# [4] = blank plasma containing ME 100 mg/ml, ME 100 mg/ml
# [5] = blank plasma containing TCEP 100 mg/ml, TCEP 100 mg/ml
# [6] = placing at room temperature for 1 h, theoretical 0.1 ng/mL
# [7] = placing at room temperature for 1 h, theoretical 12.0 ng/mL
# [8] = placing below −60° C. for 36 days, theoretical 0.1 ng/mL
# [9] = placing in ice box for 4 h, theoretical 12.0 ng/mL
# [10] = three cycles of freeze-thaw, theoretical 0.1 ng/mL
# [11] = three cycles of freeze-thaw, theoretical 12.0 ng/mL
structure (smiles),measurement,setting,value
"COC(=O)[C@H](c1ccccc1Cl)N1CC[C@@H]2SC(=O)C=C2C1 [(7aS,2′S)-2-oxo-clopidogrel, methyl(S)-2-(2-chlorophenyl)-2-((S)-2-oxo-2,6,7,7a-tetrahydrothieno[3,2-c]pyridin-5 (4H)-yl)acetate]","recovery at 0 day, 0.1 ng/mL",[1]; [3],102%
same,"recovery at 10 day, 0.1 ng/mL",[1]; [3],103%
same,"recovery at 30 day, 0.1 ng/mL",[1]; [3],95.5%
same,"recovery at 0 day, 0.1 ng/mL",[1]; [4],102%
same,"recovery at 10 day, 0.1 ng/mL",[1]; [4],101%
same,"recovery at 30 day, 0.1 ng/mL",[1]; [4],91.5%
same,"recovery at 60 day, 0.1 ng/mL",[1]; [4],86.6%
same,"recovery at 0 day, 12 ng/mL",[1]; [4],101%
same,"recovery at 10 day, 12 ng/mL",[1]; [4],99.2%
same,"recovery at 30 day, 12 ng/mL",[1]; [4],96.5%
same,"recovery at 60 day, 12 ng/mL",[1]; [4],87.9%
same,"recovery at 60 day, 0.1 ng/mL",[1]; [5],101%
same,"recovery at 0 day, 12 ng/mL",[1]; [5],101%
same,"recovery at 10 day, 12 ng/mL",[1]; [5],100%
same,"recovery at 30 day, 12 ng/mL",[1]; [5],102%
same,"recovery at 60 day, 12 ng/mL",[1]; [5],101%
same,"recovery at 60 day, 0.1 ng/mL","[1]; plasma, DTT 100 mg/ml",89.9%
same,"recovery at 0 day, 12 ng/mL","[1]; plasma, DTT 100 mg/ml",101%
same,"recovery at 10 day, 12 ng/mL","[1]; plasma, DTT 100 mg/ml",100%
same,"recovery at 30 day, 12 ng/mL","[1]; plasma, DTT 100 mg/ml",98.9%
same,"recovery at 60 day, 12 ng/mL","[1]; plasma, DTT 100 mg/ml",92.4%
same,"recovery at 0 day, 0.1 ng/mL","[1]; plasma, TCEP 100 mg/ml",102%
same,"recovery at 10 day, 0.1 ng/mL","[1]; plasma, TCEP 100 mg/ml",105%
same,"recovery at 30 day, 0.1 ng/mL","[1]; plasma, TCEP 100 mg/ml",99.3%
same,Stability of plasma samples (in words),"[1]; with TCEP compared with DTT and ME, 100 mg/ml",better than that of the plasma samples with DTT and ME
same,"recovery at 1 h, 0.1 ng/mL","[2]; human, plasma containing the reducing agent (TCEP), placing at room temperature for 1 h, theoretical 0.1 ng/mL, read-out: Recovery rate",102%
same,"recovery at 1 h, 12 ng/mL","[2]; human, plasma containing the reducing agent (TCEP), placing at room temperature for 1 h, theoretical 12.0 ng/mL, read-out: Recovery rate",99.4%
same,"recovery at 36 days, 0.1 ng/mL","[2]; human, plasma containing the reducing agent (TCEP), placing below −60° C. for 36 days, theoretical 0.1 ng/mL, read-out: Recovery rate",96.4%
same,"recovery at 36 days, 12 ng/mL","[2]; human, plasma containing the reducing agent (TCEP), placing below −60° C. for 36 days, theoretical 12.0 ng/mL, read-out: Recovery rate",97.7%
same,"recovery at 4 h, 0.1 ng/mL","[2]; human, plasma containing the reducing agent (TCEP), placing in ice box for 4 h, theoretical 0.1 ng/mL, read-out: Recovery rate",100%
same,"recovery at 4 h, 12 ng/mL","[2]; human, plasma containing the reducing agent (TCEP), placing in ice box for 4 h, theoretical 12.0 ng/mL, read-out: Recovery rate",98.5%
same,recovery at 0.1 ng/mL,"[2]; human, plasma containing the reducing agent (TCEP), three cycles of freeze-thaw, theoretical 0.1 ng/mL, read-out: Recovery rate",100%
same,recovery at 12 ng/mL,"[2]; human, plasma containing the reducing agent (TCEP), three cycles of freeze-thaw, theoretical 12.0 ng/mL, read-out: Recovery rate",99.3%
same,Average measured concentration,[2]; [6],0.1021 ng/mL
same,Measured concentration,[2]; [6],0.1013 ng/mL and 0.1027 ng/mL and 0.1020 ng/mL and 0.1040 ng/mL and 0.1007 ng/mL
same,Average measured concentration,[2]; [7],11.9269 ng/mL
same,Measured concentration,[2]; [7],11.8349 ng/mL and 11.7245 ng/mL and 11.8592 ng/mL and 12.1616 ng/mL and 12.0541 ng/mL
same,Average measured concentration,[2]; [8],0.0964 ng/mL
same,Measured concentration,[2]; [8],0.0980 ng/mL and 0.0940 ng/mL
same,Measured concentration,"[2]; placing in ice box for 4 h, theoretical 0.1 ng/mL",0.1013 ng/mL (2×) and 0.0960 ng/mL
same,Average measured concentration,[2]; [9],11.8184 ng/mL
same,Measured concentration,[2]; [9],12.0320 ng/mL and 11.7632 ng/mL and 11.6883 ng/mL and 11.8822 ng/mL and 11.7261 ng/mL
same,Average measured concentration,[2]; [10],0.1003 ng/mL
same,Measured concentration,[2]; [10],0.1007 ng/mL (2×) and 0.1013 ng/mL (2×) and 0.0973 ng/mL
same,Average measured concentration,[2]; [11],11.9191 ng/mL
same,Measured concentration,[2]; [11],11.9123 ng/mL and 11.8416 ng/mL and 11.9078 ng/mL and 11.8995 ng/mL and 12.0342 ng/mL
